The test system of test [1] is CD4, CD8, CD11c, CD19, F480 or GR1(CD117) positive splenocytes. Particulars: total splenocytes, double staining, 20 μM.
Description: (§3) Binding assays were carried out using either splenocytes (FIG. 1, panels A B, D, E and G) or bone marrow derived dendritic cells (FIG. 1, panels C and F). The cells were fixed by means of an incubation with a 0.4% glutaraldehyde solution for 15 minutes at 4° C. 5×10^5 fixed cells were incubated in the presence of 20 μM CFSE αMod-[sequence] (FIG. 1, panels A, B and C), or CFSE γMod-[sequence] (FIG. 1, panels D, E, F and G). In some assays, and to study the specificity of CFSE labeled peptide binding, these incubations were carried out in the presence or absence of the unlabeled peptides αMod-[sequence], γMod-[sequence] or [sequence] (100 μM) (panels B and E). Also, we carried out binding assays using the CFSE labeled peptide CFSE-OVA (235-264) as a negative control (FIG. 1, panels A, C, D and F). After 30 minutes of incubation at 4° C., two washings with PBS were carried out and the performed labeling was analyzed by flow cytometry. In some experiments (FIG. 1G), double staining was carried out using anti-CD4, CD8, CD11c, CD19, F480 or GR1(CD117) antibodies labeled with phycoerythrin (Pharmingen) together with the CFSE-γMod-[sequence] peptide. In these cases, the labeling with the specific antibodies was carried out before fixing the cells with glutaraldehyde.
Test [2] deals with bone marrow derived dendritic cells. Put plainly: Binding of CFSE labeled peptides to bone marrow derived dendritic cells (flow cytometry). Particulars: 20 μM peptide, fixed cells, 30 minutes at 4° C. The test is classed as cell-based, mouse. The protocol: Dendritic cells were grown from bone marrow cells. After lysing the erythrocytes with ACK lysis buffer, the cells were washed and lymphocytes and granulocytes were removed by means of incubation with a mixture of antibodies against CD4 (GK1; ATCC, Manassas, Va.), CD8 (53.6.72; ATCC), Ly-6G/Gr1 (BD-Pharmingen; San Diego Calif.) and CD45R/B220 (BD-Pharmingen), followed by rabbit supplement. The remaining cells grew in 12 culture plates in complete medium with 10^6 cells/ml supplemented with 20 ng/ml of mGM-CSF and 20 ng/ml of mIL-4 (both from Peprotech; London, GB). Every 2 days the medium was substituted with fresh medium containing cytokines. On day 7, non-adherent dendritic cells were collected, and cultured in the presence or absence of 50 μM of modulin peptides or of 1 μg/ml of LPS (Sigma) and incubated for 48 hours at 37° C. and 5% CO2. After this period, the cells were isolated and incubated with anti IAb, CD54 and CD86 antibodies (Pharmingen). In parallel experiments, the dendritic cells were incubated with the indicated stimuli for 16 hours, after which the expression of the messenger RNA for the p40 molecules of IL-12 and of TNF-α was analyzed.
For orientation: Flow cytometry measures light scatter and fluorescence of single cells or particles in a stream.

Test [3] deals with splenocytes from C57BL/6 TLR2KO mice. As to the kind of experiment: Binding of CFSE labeled peptides to fixed splenocytes from TLR2 KO mice (flow cytometry). Particulars: 20 μM peptide, 30 minutes at 4° C. In kind it is cell-based, mouse. The protocol:
Mouse splenocytes were purified from C57BL/6 TLR2KO mice after homogenizing the spleen. […] 5×10^5 fixed splenocytes were incubated in the presence of 20 μM CFSE γMod-SIINFEKL, CFSE αMod-SIINFEKL or CFSE-OVA (235-264) control peptide to show the binding specificity.

Test [4] deals with IFNγ-producing cells in response to the SIINFEKL peptide. Put plainly: ELISPOT of IFNγ-producing cells specific for SIINFEKL after immunization. The test is classed as in vivo, C57BL/6 mice. The settings on record: for IFNγ-producing cells in response to SIINFEKL (ELISPOT): 5 nmoles peptide plus 50 μg poly I:C, seven days after immunization; for IFN-γ-producing cells specific for SIINFEKL (ELISPOT): Example 4, C57BL/6 wild type mice, 5 nmoles peptide with 50 μg poly I:C, seven days. The protocol:
(§1) C57BL6 mice were intravenously immunized intravenously with 5 nmoles of the indicated peptides in combination with 50 μg of the TLR3 ligand poly I:C. In some cases, the peptides were immunized in the presence of TLR2 (peptidoglycan), TLR4 (LPS or the EDA protein) or TLR9 (CpG) ligand. Seven days after the immunization, the mice were intravenously injected with a mixture of 5×10^6 splenocytes, half of which had been previously labeled with a dose of 0.25 μM C and the other half with 2.5 uM CFSE and the SIINFEKL peptide (10 μg/ml). On the following day, the mice were sacrificed and the splenocytes were analyzed by flow cytometry to quantify the number of cells with high CFSE labeling with respect to the cells with low CFSE labeling. Thus, the percentage of cell lysis of the cells incubated with the cytotoxic SIINFEKL peptide can be calculated in an experiment called in vivo killing.
For the analysis of IFNγ-producing cells specific for SIINFEKL and induced in vivo by the immunizations, ELISPOT experiments were carried out using a BD-pharmingen kit (San Diego, Calif.) and according to the instructions of the manufacturer. Briefly, the plates (Multiscreen HTS, Millipore, Bedford, Mass.) incubated overnight with the anti-IFNγ antibody were blocked for 2 hours with HL-1 medium (Biowhittaker, Verviers, Belgium) containing 10% horse serum. Thus, 5×10^5 splenocytes were incubated in triplicate in the absence or in the presence of the antigens at 37° C. and 5% CO2. On the following day, the plates were washed with PBS and incubated with biotinylated anti-IFNγ antibody (2 mg/ml). After two hours, the plates were washed and incubated with a 1/100 dilution of streptavidin-peroxidase. One hour later, the wells were washed and developed using the AEC substrate set (BD-Pharmingen). The colorimetric reaction was stopped with distilled water and the number of spots was quantified using an ELISPOT automatic reader (CTL, Aalen, Germany).
(§2) For the analysis of IFNγ-producing cells in the presence of SIINFEKL and induced in vivo by the immunizations, ELISPOT experiments were carried out using a BD-pharmingen kit (San Diego, Calif.) and according to the instructions of the manufacturer, in the same manner as in Example 3.

Test [5] concerns T cells from OT-1 transgenic mice. Put plainly: Antigen presentation assay: proliferation of OT-1 T cells (tritiated thymidine). In kind it is cell-based, mouse. The settings on record: dendritic cells incubated with 10 μM peptide. The protocol: Dendritic cells derived from bone marrow were cultured in the presence or absence of 10 μM of the indicated peptides (FIG. 3). Forty hours later, the cells were washed and distributed in 96-well plates at different concentrations and incubated in the presence of 10^5 T cells/well obtained from OT-1 transgenic mice (which express a specific T receptor for the SIINFEKL peptide of ovalbumin. Seventy-two hours later, tritiated thymidine was added to the cultures and six hours later the cells were harvested and the incorporated thymidine was analyzed in a scintillation counter (Topcount Packard).

Test [6] has as its system splenocytes pulsed with the SIINFEKL peptide. Put plainly: In vivo killing assay against SIINFEKL-pulsed splenocytes after immunization. Details: species or system C57BL/6 mice. Particulars: for specific cytotoxic activity against SIINFEKL (in vivo killing): 5 nmoles peptide plus 50 μg poly I:C, seven days after immunization; for effect of combination with TLR3 ligand on activation of the cytotoxic response (in vivo killing): 5 nmoles peptide with 50 μg TLR3 ligand (poly I:C); for effect of combination with TLR3 ligand on activation of the cytotoxic response (in vivo killing) / effect of combination with TLR9 ligand on activation of the cytotoxic response (in vivo killing) / cytotoxic T responses against SIINFEKL target cells (in vivo killing): seven days; for effect of combination with TLR9 ligand on activation of the cytotoxic response (in vivo killing): 5 nmoles peptide with 50 μg TLR9 ligand (CpG); for cytotoxic T responses against SIINFEKL target cells (in vivo killing): Example 4, C57BL/6 wild type mice, 5 nmoles peptide with 50 μg poly I:C. The protocol: as §1, with “Seven days after the immunization, the mice were intravenously injected with a mixture of 5×10^6 splenocytes, half of which had been previously labeled with a dose of 0.25 μM C and the other half with 2.5 uM CFSE and the SIINFEKL peptide (10 μg/ml).” left out
C57BL6 wild type mice and knockout mice were immunized for TLR2 with the aim of studying the dependence on TLR2 in the immunostimulating capacity of modulin-derived peptides. Thus, different mice were injected with 5 nmoles of the indicated peptides or with PBS in combination with 50 μg of the TLR3 ligand poly I:C. […] On the following day, the mice were sacrificed and the splenocytes were analyzed by flow cytometry to quantify the number of cells with high CFSE labeling with respect to the cells with low CFSE labeling in the same manner as in Example 3.

The test system of test [7] is EG7OVA tumor cells. As to the kind of experiment: Protection against the challenge with EG7OVA tumor cells after immunization. In kind it is in vivo, C57BL/6 mice. Particulars: 5 nmoles peptide with poly I:C. The protocol: Protection against the challenge with EG7 tumor cells expressing the OVA protein C57BL6 mice were subcutaneously immunized with 5 nmol of the indicated peptides in combination with poly I:C. […] In some experiments, mice were first challenged s.c with 5×10^5 cells and when tumors reached 5 mm in diameter they were treated with the indicated peptide. The tumor growth was controlled with a gage. Mice were sacrificed when the tumor reached a volume greater than 4 cm^3. Kaplan-Meier plot of mice survival for each immunogen is depicted.

Test [8] relates to IFNγ-producing cells in response to the SIINFEKL peptide. As to the kind of experiment: ELISPOT of IFNγ-producing cells specific for SIINFEKL in TLR2 KO mice. In kind it is in vivo. The settings on record: mice lacking TLR2, 5 nmoles peptide with 50 μg poly I:C, seven days; level similar to wild type. The protocol: as §2
Test [9] has as its system splenocytes pulsed with the SIINFEKL peptide. As to the kind of experiment: In vivo killing assay against SIINFEKL-pulsed splenocytes in TLR2 KO mice. Particulars: mice lacking TLR2, 5 nmoles peptide with 50 μg poly I:C, seven days; level similar to wild type. The protocol:
C57BL6 wild type mice and knockout mice were immunized for TLR2 with the aim of studying the dependence on TLR2 in the immunostimulating capacity of modulin-derived peptides. Thus, different mice were injected with 5 nmoles of the indicated peptides or with PBS in combination with 50 μg of the TLR3 ligand poly I:C. Seven days after the immunization, the mice were intravenously injected with a mixture of 5×10^6 splenocytes, half of which had been previously labeled with a dose of 0.25 μM C and the other half with 2.5 μM CFSE and the SIINFEKL peptide (10 μg/ml). On the following day, the mice were sacrificed and the splenocytes were analyzed by flow cytometry to quantify the number of cells with high CFSE labeling with respect to the cells with low CFSE labeling in the same manner as in Example 3.

In test [10] the test system is mouse splenocytes. As to the kind of experiment: Binding of CFSE labeled peptides to glutaraldehyde-fixed splenocytes (flow cytometry). The test is classed as cell-based. Particulars: unlabeled competitor 100 μM.
Description: as §3
Test [11] deals with EG7OVA tumor cells. Put plainly: Treatment of mice bearing established EG7OVA tumors. The test is classed as in vivo, C57BL/6 mice. The settings on record: EG7OVA tumors of 5 mm diameter at treatment, peptide plus poly I:C, p<0.05. The protocol:
Protection against the challenge with EG7 tumor cells expressing the OVA protein C57BL6 mice were subcutaneously immunized with 5 nmol of the indicated peptides in combination with poly I:C. Seven days after the immunization, the mice were subcutaneously injected with 5×10^5 or with 5×10^7 EG7OVA cells. In some experiments, mice were first challenged s.c with 5×10^5 cells and when tumors reached 5 mm in diameter they were treated with the indicated peptide. The tumor growth was controlled with a gage. Mice were sacrificed when the tumor reached a volume greater than 4 cm^3. Kaplan-Meier plot of mice survival for each immunogen is depicted.

As to “CFSE-MAADIISTIGDLVKWIIDTVNKFKKSIINFEKL [CFSE-γMod-SIINFEKL]”, in [1], the “percentage of CD4+ cells stained with the CFSE peptide” value was “approximately 24.4%”, the “percentage of CD8+ cells stained with the CFSE peptide” value is listed as ~17.8%, the “percentage of CD11c cells stained with the CFSE peptide” value was ~62.1% and the “percentage of CD19 cells stained with the CFSE peptide” value is ~52.8%. For the same substance, in [1], the “percentage of F418 cells stained with the CFSE peptide” value was ~66.2% and the “percentage of GR1+ cells stained with the CFSE peptide” value is recorded as ~27.3%. For the same substance, the “binding of CFSE labeled peptide to bone marrow derived dendritic cells” value in test [2] is recorded as “able to stain bone marrow derived dendritic cells”. Also, the “binding of CFSE labeled peptide to the surface of TLR2 KO splenocytes” value in test [3] is on record as “still retained the capacity to bind”.
Regarding “MADVIAKIVEIVKGLIDQFTQKSIINFEKL [αMod-SIINFEKL]”, in test [4], the “IFNγ-producing cells in response to SIINFEKL (ELISPOT)” value was “production of IFNγ” and the “IFN-γ-producing cells specific for SIINFEKL (ELISPOT)” value (“IFN-γ-producing cells specific” for short) is listed as “is induced”. In test [5], the “proliferation of OT-1 T lymphocytes stimulated by peptide-incubated dendritic cells” value was “significantly better than OVA (235-264) peptide”. Besides, in test [6], the “specific cytotoxic activity against SIINFEKL (in vivo killing)” value is on record as “strong cytotoxic responses”, the “effect of combination with TLR3 ligand on activation of the cytotoxic response (in vivo killing)” value is “synergistic effect”, the “effect of combination with TLR9 ligand on activation of the cytotoxic response (in vivo killing)” value is recorded as “synergistic effect” and the “cytotoxic T responses against SIINFEKL target cells (in vivo killing)” value (“cytotoxic T responses” for short) is “capable of inducing cytotoxic T responses”. Also, the “protection from tumor growth after EG7OVA challenge” value in test [7] (5×10^5 EG7OVA cells s.c. seven days after immunization (FIG. 5A)) was “protected the mice from tumor growth”. In addition, the “IFN-γ-producing cells specific” value in test [8] was “also observed”. Moreover, in test [9], the “cytotoxic T responses” value is “also observed”. Moreover, the “inhibition of the CFSE αMod-SIINFEKL signal on splenocytes by unlabeled peptide” value in [10] (20 μM CFSE αMod-SIINFEKL) is “significantly inhibited”.
Turning to “MAADIISTIGDLVKWIIDTVNKFKKSIINFEKL [γMod-SIINFEKL]”, in test [4], the “IFNγ-producing cells in response to SIINFEKL (ELISPOT)” value is on record as “production of IFNγ” and the “IFN-γ-producing cells specific” value is reported as “is induced”. Besides, the “proliferation of OT-1 T lymphocytes stimulated by peptide-incubated dendritic cells” value in [5] is “significantly better than OVA (235-264) peptide”. In test [6], the “specific cytotoxic activity against SIINFEKL (in vivo killing)” value is reported as “strong cytotoxic responses”, the “effect of combination with TLR3 ligand on activation of the cytotoxic response (in vivo killing)” value was “synergistic effect”, the “effect of combination with TLR9 ligand on activation of the cytotoxic response (in vivo killing)” value is listed as “synergistic effect” and the “cytotoxic T responses” value is “capable of inducing cytotoxic T responses”. Besides, the “protection from tumor growth after EG7OVA challenge” value in [7] (7×10^5 EG7OVA cells s.c. seven days after immunization (FIG. 5B)) is “protected the mice from tumor growth”. In [8], the “IFN-γ-producing cells specific” value is given as “also observed”. Further, the “mice rejecting the established tumor” value in [11] is “about 38%”. In [9], the “cytotoxic T responses” value is “also observed”. Moreover, the “reduction of the bright fluorescence of CFSE γMod-SIINFEKL on splenocytes by unlabeled peptide” value in test [10] (20 μM CFSE γMod-SIINFEKL) is “reduced the bright fluorescence”.

The values are drawn from patent US20110268757A1, “USE OF PHENOL-SOLUBLE MODULINS FOR VACCINE DEVELOPMENT” (INSTITUT PASTEUR, priority 2008, published 2011).
